This note sets out measurements from patent US20140154315A1, “Hydrophobic Preparations” (VAXCINE LTD., priority 2011, published 2014).

In this experiment the test system is collagen-induced arthritis (CIA) in DBA-1 mice. Description: Oral collagen II preparation in mouse collagen-induced arthritis model, Example 10. It is filed as in vivo. Conditions: 20 ug dose, oral gavage 4 times before CIA induction; FIGS. 1 and 2. On the procedure:
• 1. Ten-twelve week old male DBA-1 mice were weighed and divided into 3 groups (n=8/group) as outlined below. All groups were treated orally (by gavage) 4 times (days −10, −7, −5 & −3) prior to induction of collagen-induced arthritis (CIA) by injection of 100 ug collagen in Complete Freunds Adjuvant at the base of the tail. • 2. Arthritis was induced in all animals on day 0, followed by a boost on day 21, and incidence and severity assessed and scored on days 5, 7, 9, 12, 14, 16, 19 and 21 after the boost. Three treatment groups with 8 animals per group were used as outlined below: • (i). CIA+gavage with oil alone • (ii). CIA+gavage with oil containing bovine collagen II (10 μg/dose) • (iii). CIA+gavage with bovine collagen II ([…])
Clinical scores of arthritis incidence (% of animals in each group affected with arthritis of any severity in any number of joints) and arthritis severity (the severity of disease in each individual mouse) was performed after CIA induction for the duration of the experiment. A standard arthritis scoring system was used as outlined below. Each paw is evaluated for swelling and deformity, scored and a total calculated for each animal.
Score 0: No arthritis Score 1:1-2 toes affected only Score 2: 3 or >toes and/or swelling of the paw (metacarpus/metatarsus) Score 3: swelling of the carpus/tarsus Score 4: deformity with ankylosis of the carpus/tarsus • 3. […]

Consider “collagen alone: bovine collagen II given by gavage without oil formulation”, for which the “number of animals suffering from arthritis (incidence)” value is “reduction in the number of animals suffering from arthritis”.
